Laboratory results published in patent publication US20200000816A1, “COMPOUND HAVING SOMATOSTATIN RECEPTOR AGONISTIC ACTIVITY AND PHARMACEUTICAL USE THEREOF” (ONO PHARMACEUTICAL CO., LTD., priority 2017, published 2020).

Legend:
human SSTR2 = molecular target: T1, human SSTR2 (Homo sapiens, UniProt P30874); assay: Evaluation of SSTR2 agonistic activity using cells expressing human SSTR2 (suppression of forskolin-stimulated cAMP production, SSTR2-CHO-K1); format: cell-based; conditions: suppression of cAMP production by forskolin stimulation, 1000 nmol/L octreotide = 100%
T1 construct: Myc; expressed in transfected cells
T1 sequence (P30874 whole entry): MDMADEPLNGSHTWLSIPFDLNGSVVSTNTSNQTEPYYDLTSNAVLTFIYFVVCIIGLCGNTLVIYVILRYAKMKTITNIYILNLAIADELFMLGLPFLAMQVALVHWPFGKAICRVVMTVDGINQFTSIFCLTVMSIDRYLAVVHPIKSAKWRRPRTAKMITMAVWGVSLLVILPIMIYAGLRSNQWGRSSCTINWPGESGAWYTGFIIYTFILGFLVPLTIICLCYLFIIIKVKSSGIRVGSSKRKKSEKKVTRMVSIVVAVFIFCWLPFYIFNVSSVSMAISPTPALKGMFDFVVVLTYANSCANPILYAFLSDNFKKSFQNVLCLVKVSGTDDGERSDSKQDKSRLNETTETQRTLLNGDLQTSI

[1] = tested on: Chinese hamster lung-derived CHL/IU cells; assay: Evaluation of phospholipidosis induction ability using cultured cell line (NBD-PE incorporation); format: cell-based; conditions: 24 hours, positive = 25% or more of amiodarone maximum reaction at cell viability 50% or more; for phospholipidosis induction ability (judgement): 6.25-100 μmol/L
Experimental: Chinese hamster lung-derived CHL/IU cells were suspended in an MEM-E culture solution containing non-essential amino acids, sodium pyruvate and 10% foetal bovine serum and seeded in a 96-well plate. The cells cultured overnight in an incubator (5% carbon dioxide, 95% air, 37° C.) were further cultured for 24 hours after replacing the culture solution with a culture solution containing 6.25, 12.5, 25, 50 or 100 μmol/L of a test substance and NBD-PE (fluorescence label N-(7-nitrobenz-2-oxa-1,3-diazol-4-yl)-1,2-dihexadecanoyl-sn-glycero-3-phosphoethanolamine triethylammonium salt) obtained from Molecular Probes. The phospholipidosis induction ability was evaluated by measuring the concentration of NBD-PE incorporated into the cells. Specifically, the cells were washed twice with PBS and then measured for the fluorescence of NBD-PE (excitation wavelength: 485 nm, fluorescence wavelength: 535 nm) incorporated in the cells on a SpectraMax plate reader available from Molecular Devices, LLC. for evaluation. After measurement of the fluorescence of NBD-PE, the cell viability was evaluated with Premix WST-1 Cell Proliferation Assay System available from TaKaRa Bio Inc. The phospholipidosis induction ability was judged to be positive when, at a dose that provided a cell viability of 50% or more, the reaction (the concentration of NBD-PE incorporated after administration of a test substance) was 25% or more of the maximum reaction of a positive control amiodarone (the concentration of NBD-PE incorporated into the cells after administration of amiodarone was regarded as 100%).

hERG K+ channel = molecular target: T2, hERG K+ channel (Homo sapiens, UniProt Q12809); assay: Evaluation of hERG K+ channel inhibitory activity using cells expressing human ERG (automated patch-clamp, CHO-K1); format: cell-based; conditions: CHO-K1 cells with human ERG gene, tested at 1, 3 and 10 μmol/L, 5-minute incubation
T2 construct: expressed in transfected cells; host or cells: CHO-K1
T2 sequence (Q12809 whole entry): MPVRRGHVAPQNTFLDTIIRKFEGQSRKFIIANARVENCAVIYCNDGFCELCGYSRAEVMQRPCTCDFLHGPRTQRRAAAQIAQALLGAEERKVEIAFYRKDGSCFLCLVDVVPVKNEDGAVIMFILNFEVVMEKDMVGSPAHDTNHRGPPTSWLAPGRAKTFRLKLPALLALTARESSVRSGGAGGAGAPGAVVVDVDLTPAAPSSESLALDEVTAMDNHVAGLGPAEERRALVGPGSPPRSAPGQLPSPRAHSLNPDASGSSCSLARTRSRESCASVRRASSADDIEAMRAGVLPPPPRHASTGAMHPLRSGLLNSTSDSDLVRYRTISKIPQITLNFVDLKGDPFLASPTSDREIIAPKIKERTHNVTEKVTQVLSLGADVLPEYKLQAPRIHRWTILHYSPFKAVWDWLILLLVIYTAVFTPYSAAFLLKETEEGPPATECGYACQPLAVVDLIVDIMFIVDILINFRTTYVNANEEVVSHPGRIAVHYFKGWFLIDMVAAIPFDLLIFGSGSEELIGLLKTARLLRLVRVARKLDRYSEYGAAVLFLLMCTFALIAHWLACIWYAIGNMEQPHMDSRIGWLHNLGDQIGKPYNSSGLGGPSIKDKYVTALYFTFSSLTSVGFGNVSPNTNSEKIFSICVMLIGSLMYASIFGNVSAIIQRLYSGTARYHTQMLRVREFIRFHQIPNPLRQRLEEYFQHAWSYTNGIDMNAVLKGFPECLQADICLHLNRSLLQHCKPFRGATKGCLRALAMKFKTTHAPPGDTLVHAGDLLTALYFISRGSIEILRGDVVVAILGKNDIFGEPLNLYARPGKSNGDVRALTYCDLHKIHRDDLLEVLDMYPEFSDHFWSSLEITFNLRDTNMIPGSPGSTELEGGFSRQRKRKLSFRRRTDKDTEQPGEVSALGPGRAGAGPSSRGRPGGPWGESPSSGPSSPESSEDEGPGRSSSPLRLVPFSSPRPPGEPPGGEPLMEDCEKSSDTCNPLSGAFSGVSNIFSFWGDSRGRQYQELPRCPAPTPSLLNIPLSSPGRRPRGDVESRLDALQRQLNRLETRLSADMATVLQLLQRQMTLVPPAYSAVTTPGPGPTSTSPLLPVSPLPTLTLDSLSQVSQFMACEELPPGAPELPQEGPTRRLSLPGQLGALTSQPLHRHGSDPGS
Experimental: Evaluation of hERG K^+ Channel Inhibitory Activity Using Cells Expressing Human ERG
CHO-K1 cells having the human ERG gene (ether-a-go-go related gene) introduced therein were subcultured in an F-12 medium [F-12 Nutrient Mixture (HAM)] containing 10% inactivated foetal bovine serum, 100 IU/mL penicillin-100 μg/mL streptomycin and 200 μg/mL geneticin.
Patch-clamp was performed in a full-automated manner using CHO-K1 cells having the human ERG gene introduced therein and having a perforated patch formed therein with amphotericin B. For the experiment, a 384-well PatchPlate™ was used and the cell suspension and compounds were added thereto. The IKr current was measured with command voltages of holding potential of −80 mV, depolarization potential of +40 mV (2 seconds) and repolarization potential of −50 mV (2 seconds). The stimulation frequency was twice (single pulse stimulations) before and after the treatment with a drug (the concentrations of a compound for evaluation were 1, 3 and 10 μmol/L, a 5-minute incubation), and the Ikr maximum current was measured. The inhibition (%) on the CHO-K1 cells having the human ERG gene introduced therein was determined by correcting the variation in the maximum tail current before and after addition of the test substance by the variation thereof in the group treated with a medium (inhibition (%)=(1-variation in current before and after addition of a test substance/variation in current before and after addition of a medium)×100). The 50% inhibitory concentration (IC50 value) was calculated from a line connecting two points on both sides of the inhibition of 50%.

GH secretion = assay: Evaluation of suppression of growth hormone (GH) secretion using rats (GHRH-induced); format: in vivo; conditions: Rattus norvegicus, 5 min, oral, dosage of 1 mg/kg, GHRH given 8 hours after dosing, blood GH 5 minutes after GHRH
Experimental: A medium (distilled water (Otsuka distilled water, Otsuka Pharmaceutical Factory, Inc.)) or a test compound dissolved in the medium was orally administered to rats (7-week old male Crl:CD(SD) IGS rats (Charles River Laboratories Japan, Inc.)) and after 7 hours and 57 minutes, the animals were administered with 50 mg/kg of pentobarbital sodium (Somnopentyl, Kyoritsu Seiyaku Corporation) via the tail vein for anaesthesia. Three minutes after administration of pentobarbital sodium, the rats were administered with 0.01 mg/kg of growth hormone-releasing hormone (GHRH, Bachem) via the tail vein to induce GH secretion. In order to measure the blood GH concentration, 0.2 mL of blood was collected through the jugular vein at 5 minutes after administration of GHRH. The collected blood was centrifuged at 4° C., 13,000×g for 5 minutes to obtain plasma. The blood GH concentration was measured by using Rat/Mouse Growth Hormone ELISA (Millipore) following the instruction of the kit. The percentage (%) of suppression of GH secretion was determined by using the obtained blood GH concentration and the equation {[suppression (%) of GH secretion]=([blood GH concentration of the group administered with the medium]−[blood GH concentration of the group administered with a test compound])/[blood GH concentration of the group administered with the medium]×100}. In the equation, the group administered with the medium represents the group of animals administered with the medium and the group administered with a test compound represents the group of animals administered with a test compound dissolved in the medium.

Row | Compound | EC50 (human SSTR2) [nM] | phospholipidosis induction ability (judgement) [1] | IC50 (hERG K+ channel) [µM] | inhibition in vivo at 1 mg/kg (GH secretion) [%] | concentration at which judged to be positive in phospholipidosis induction ability [1] [µmol/L]
1 | COc1cc2nc(-c3cncc(-c4cc(F)cc(F)c4)c3N3CC[C@@H](NCCC(F)(F)F)[C@@H](O)C3)[nH]c2cc1F [Example 5(6), (3S,4R)-1-[3-(3,5-difluorophenyl)-5-(6-fluoro-5-methoxy-1H-benzimidazol-2-yl)-4-pyridinyl]-4-[(3,3,3-trifluoropropyl)amino]-3-piperidinol] | 0.067 | negative | ≥ 10 | 83 | 
2 | CCN[C@@H]1CCN(c2c(-c3cc(F)cc(F)c3)cnc(C)c2-c2nc3cc(F)c(OC)cc3[nH]2)C[C@@H]1O [Example 3(4), (3S,4R)-1-[5-(3,5-difluorophenyl)-3-(5-fluoro-6-methoxy-1H-benzimidazol-2-yl)-2-methyl-4-pyridinyl]-4-(ethylamino)-3-piperidinol] | 0.056 |  | ≥ 10 | 71 | 
3 | Cn1cc(-c2ncc(-c3cc(F)cc(F)c3)c(N3CC[C@@H](N)[C@@H](O)C3)c2-c2nc3cc(F)c(F)cc3[nH]2)cn1 [Example 1(2), (3S,4R)-4-amino-1-[3-(5,6-difluoro-1H-benzimidazol-2-yl)-5-(3,5-difluorophenyl)-2-(1-methyl-1H-pyrazol-4-yl)-4-pyridinyl]-3-piperidinol] | 0.032 | negative | ≥ 10 |  | 
4 | COC(=O)c1cc(F)cc2nc(-c3c(N4CCOCC4)ncc(-c4cc(F)cc(F)c4)c3N3CC[C@@H](N)[C@@H](O)C3)[nH]c12 [Example 6, Methyl 2-{4-[(3S,4R)-4-amino-3-hydroxy-1-piperidinyl]-5-(3,5-difluorophenyl)-2-(4-morpholinyl)-3-pyridinyl}-5-fluoro-1H-benzimidazole-7-carboxylate] | 0.081 |  | 4.4 |  | 50
5 | COc1ccc2nc(-c3c(C)ncc(-c4cc(F)cc(Cl)c4)c3N3CC[C@@H](NC4COC4)[C@@H](O)C3)[nH]c2c1 [Example 3, (3S,4R)-1-[5-(3-chloro-5-fluorophenyl)-3-(6-methoxy-1H-benzimidazol-2-yl)-2-methyl-4-pyridinyl]-4-(3-oxetanylamino)-3-piperidinol] | 0.027 | negative | ≥ 10 |  | 
6 | CCN[C@@H]1CCN(c2c(-c3nc4cc(F)c(F)cc4[nH]3)cncc2-c2cc(F)ccc2F)C[C@@H]1O [Example 5(4), (3S,4R)-1-[3-(5,6-difluoro-1H-benzimidazol-2-yl)-5-(2,5-difluorophenyl)-4-pyridinyl]-4-(ethylamino)-3-piperidinol] | 0.031 | negative | 8.4 | 90 | 
7 | COC(=O)c1cc(F)cc2nc(-c3cncc(-c4cc(F)ccc4F)c3N3CC[C@@H](N)[C@@H](O)C3)[nH]c12 [Example 4(16), Methyl 2-{4-[(3S,4R)-4-amino-3-hydroxy-1-piperidinyl]-5-(2,5-difluorophenyl)-3-pyridinyl}-5-fluoro-1H-benzimidazole-7-carboxylate] | 0.005 |  | 3.9 | 67 | 25
8 | COC(=O)c1cc(F)cc2nc(-c3c(C)ncc(-c4cc(F)ccc4F)c3N3CC[C@@H](N)[C@@H](O)C3)[nH]c12 [Example 2(12), Methyl 2-{4-[(3S,4R)-4-amino-3-hydroxy-1-piperidinyl]-5-(2,5-difluorophenyl)-2-methyl-3-pyridinyl}-5-fluoro-1H-benzimidazole-7-carboxylate] | 0.016 |  | 9.4 |  | 
9 | N[C@@H]1CCN(c2c(-c3cc(F)cc(F)c3)cncc2-c2nc3cc(F)c(F)cc3[nH]2)C[C@@H]1O [Example 4, (3S,4R)-4-amino-1-[3-(5,6-difluoro-1H-benzimidazol-2-yl)-5-(3,5-difluorophenyl)-4-pyridinyl]-3-piperidinol] | 0.015 |  | 6.9 |  | ≥ 12.5
10 | N[C@@H]1CCN(c2c(-c3cc(F)cc(F)c3)cncc2-c2nc3ccccc3[nH]2)C[C@@H]1O [Example 4(4), (3S,4R)-4-amino-1-[3-(1H-benzimidazol-2-yl)-5-(3,5-difluorophenyl)-4-pyridinyl]-3-piperidinol] | 0.0093 |  | 6.7 |  | 25
11 | CCN[C@@H]1CCN(c2c(-c3cc(F)cc(F)c3)cnc(C)c2-c2nc3cc(F)c(F)c(F)c3[nH]2)C[C@@H]1O [Example 3(15), (3S,4R)-1-[5-(3,5-difluorophenyl)-2-methyl-3-(5,6,7-trifluoro-1H-benzimidazol-2-yl)-4-pyridinyl]-4-(ethylamino)-3-piperidinol] | 0.47 |  | 5.8 | 66 | 
12 | COc1cc(F)cc(-c2cncc(-c3nc4cc(F)c(F)cc4[nH]3)c2N2CC[C@@H](NCCC(F)(F)F)[C@@H](O)C2)c1 [Example 5(5), (3S,4R)-1-[3-(5,6-difluoro-1H-benzimidazol-2-yl)-5-(3-fluoro-5-methoxyphenyl)-4-pyridinyl]-4-[(3,3,3-trifluoropropyl)amino]-3-piperidinol] | 0.42 | negative | ≥ 10 |  | 
13 | COc1ccc2nc(-c3cncc(-c4cc(F)ccc4F)c3N3CC[C@@H](N)[C@@H](O)C3)[nH]c2c1 [Example 4(15), (3S,4R)-4-amino-1-[3-(2,5-difluorophenyl)-5-(6-methoxy-1H-benzimidazol-2-yl)-4-pyridinyl]-3-piperidinol] | 0.012 |  | 9.1 |  | 25
14 | Cc1ncc(-c2cc(F)cc(F)c2)c(N2CC[C@@H](N)[C@@H](O)C2)c1-c1nc2cc(F)c(F)c(F)c2[nH]1 [Example 2(13), (3S,4R)-4-amino-1-[5-(3,5-difluorophenyl)-2-methyl-3-(5,6,7-trifluoro-1H-benzimidazol-2-yl)-4-pyridinyl]-3-piperidinol] | 0.017 |  | ≥ 10 |  | 
15 | O[C@H]1CN(c2c(-c3cc(F)cc(Cl)c3)cncc2-c2nc3cc(F)c(F)cc3[nH]2)CC[C@H]1NCCC(F)(F)F [Example 5(3), (3S,4R)-1-[3-(3-chloro-5-fluorophenyl)-5-(5,6-difluoro-1H-benzimidazol-2-yl)-4-pyridinyl]-4-[(3,3,3-trifluoropropyl)amino]-3-piperidinol] | 0.28 | negative | ≥ 10 |  | 
